How the values were obtained:
human TRPML1 = human TRPML1 (Homo sapiens, UniProt Q9GZU1); assay: Fluorescent TRPML1 assay (Fluo4-AM calcium fluorescence, HEK-293 Trex cells); format: cell-based
Procedure: (§1) HEK-293 Trex cells were stably transfected with a construct consisting of the human coding sequence for TRPML1 cloned into the tet-inducible plasmid pCDNA5 T/O. Mutations were introduced into the TRPML1 sequence to facilitate expression on the cell surface (Silvia Vergarajauregui, Rosa Puertollano Traffic. 2006 March; 7 (3): 337-353). Briefly, the cells are cultured in 150 mm round tissue culture dishes containing 20 mL of media. The day before the assay the cells are rinsed with DPBS —Ca—Mg and then treated briefly with Trypsin-EDTA. The Trypsin-EDTA is diluted with growth media, and cells are counted. 38×10^6 cells are re-plated into 150 mm round tissue culture dishes in media containing 0.5 ug/mL doxycycline to induce expression of hTRPML1.
(§2) The day of the experiment cells are lifted from the plates as above and collected by centrifugation. The cells are then suspended in dye loading buffer consisting of Ringer's solution supplemented with 0.1% Pluronic Acid and 1 micromolar Fluo4-AM dye. Cells are loaded for ˜60 minutes in the dark with occasional mixing. The cells are collected by centrifugation, the loading media aspirated, and the cells resuspended in 25 mL Ringer's solution and incubated ˜60 minutes in the dark. The cells are again collected by centrifugation, rinsed in Ringer's Solution and resuspended to 0.2×10^6 cells/mL in modified Ringer's solution containing 10 mM calcium.
(§3) Compounds are dissolved to a concentration of 10 millimolar with DMSO. Compound plates are created by dispensing compounds into 384 well black wall clear bottom plates (Greiner 781091). Positive and negative controls are included on each plate. Typically, different amounts of each compound are tested ranging from 100 nanoMoles (20 micromolar final concentration) decreasing in half-log steps to 31 picoMoles (6 nanomolar final concentration). Each concentration is typically tested in triplicate.
(§4) 50 microliters of dye-loaded cells are dispensed into each well of the compound assay plate created above. The fluorescence in each well is then determined with an excitation wavelength of 480 nm and an emission wavelength of 540 nm using either a Molecular Devices SpectraMax multimode plate reader or a Hamamatsu FDSS/uCell plate imager.
(§5) The resulting fluorescence for each well is exported as an ascii file and loaded into our LIMS for analysis. The percent activity of each compound at each concentration is determined by comparison to the positive and negative control wells included in each plate.
(§6) EC50 values were calculated using a non-linear regression of Prism. In the table, “A” indicates an EC50 of less than 100 nM, “B” indicates an EC50 range from 100 nM to 500 nM; “C” indicates an EC50 range from 500 nM to 2 μM; and “D” indicates an EC50 greater than 2 μM.

TRPML3 = target: T1, TRPML3 (Homo sapiens, UniProt Q8TDD5); assay: Fluorescent TRPML3 assay (as for TRPML1); format: cell-based
T1 construct: expressed in transfected cells
T1 sequence (Q8TDD5 1-553): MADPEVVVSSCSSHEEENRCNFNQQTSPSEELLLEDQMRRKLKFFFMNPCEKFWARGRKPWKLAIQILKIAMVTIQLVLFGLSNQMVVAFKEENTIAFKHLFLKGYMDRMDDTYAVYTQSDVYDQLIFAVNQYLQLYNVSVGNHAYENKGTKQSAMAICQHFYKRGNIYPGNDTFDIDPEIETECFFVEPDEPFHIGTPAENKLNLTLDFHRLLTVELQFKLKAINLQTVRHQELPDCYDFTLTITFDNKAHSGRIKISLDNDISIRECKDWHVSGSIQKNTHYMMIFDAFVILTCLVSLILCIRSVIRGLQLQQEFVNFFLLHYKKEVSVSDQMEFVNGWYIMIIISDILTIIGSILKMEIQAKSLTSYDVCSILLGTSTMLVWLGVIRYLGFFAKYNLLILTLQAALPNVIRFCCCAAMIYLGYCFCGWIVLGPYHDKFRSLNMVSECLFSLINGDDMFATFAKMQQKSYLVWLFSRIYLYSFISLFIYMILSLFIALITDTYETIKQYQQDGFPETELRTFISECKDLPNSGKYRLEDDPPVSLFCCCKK
Procedure: as §1, §2, §3, §4, §5
Assays for TRPML2 and TRPML3 were performed as above for TRPML1, by substituting the appropriate TRPML2 or TRPML3 subtype for the TRPML1.
as §6

human TRPML1, sequence (Q9GZU1 whole entry L15A/L16A/L577A/L578A, form open): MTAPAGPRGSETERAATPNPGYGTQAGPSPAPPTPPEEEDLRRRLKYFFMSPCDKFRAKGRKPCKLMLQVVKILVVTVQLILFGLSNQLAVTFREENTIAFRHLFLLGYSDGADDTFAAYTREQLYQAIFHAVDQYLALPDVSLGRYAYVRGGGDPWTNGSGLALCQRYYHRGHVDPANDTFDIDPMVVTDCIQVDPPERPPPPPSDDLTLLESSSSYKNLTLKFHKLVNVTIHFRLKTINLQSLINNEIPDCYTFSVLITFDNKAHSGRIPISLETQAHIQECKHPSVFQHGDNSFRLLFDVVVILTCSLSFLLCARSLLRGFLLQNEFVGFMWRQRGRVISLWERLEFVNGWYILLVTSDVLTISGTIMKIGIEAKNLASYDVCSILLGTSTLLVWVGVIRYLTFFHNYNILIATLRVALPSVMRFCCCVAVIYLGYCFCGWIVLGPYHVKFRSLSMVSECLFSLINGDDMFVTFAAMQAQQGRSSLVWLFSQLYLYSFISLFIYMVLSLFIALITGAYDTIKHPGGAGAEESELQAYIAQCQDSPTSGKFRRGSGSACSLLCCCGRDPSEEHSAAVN

Row | EC50 (human TRPML1; Table 3, compounds 101-177) | EC50 (TRPML3; Table 3, compounds 101-177) | EC50 (human TRPML1; Table 3, compounds 201-283) | EC50 (TRPML3; Table 3, compounds 201-283) | Compound
1 | 100 to 500 nM | 100 to 500 nM | – | – | CC(C)C(=O)N1CCN(c2ncnc3c2c(-c2ccccc2F)cn3-c2cc(C#N)cnn2)[C@@H](C)C1 [Compound 171, (S)-6-(5-(2-fluorophenyl)-4-(4-isobutyryl-2-methylpiperazin-1-yl)-7H-pyrrolo[2,3-d]pyrimidin-7-yl)pyridazine-4-carbonitrile]
2 | 100 to 500 nM | 100 to 500 nM | – | – | CCN(CC)c1cn(-c2cc(C#N)ccn2)c2ncnc(N3CCN(C(=O)C(C)C)C[C@@H]3C)c12 [Compound 151, (S)-2-(5-(diethylamino)-4-(4-isobutyryl-2-methylpiperazin-1-yl)-7H-pyrrolo[2,3-d]pyrimidin-7-yl)isonicotinonitrile]
3 | 500 to 2000 nM | 500 to 2000 nM | – | – | CC(C)C(=O)N1CCN(c2ncnc3c2c(-c2ccccn2)cn3-c2cc(C#N)ccn2)[C@@H](C)C1 [Compound 116, (S)-2-(4-(4-isobutyryl-2-methylpiperazin-1-yl)-5-(pyridin-2-yl)-7H-pyrrolo[2,3-d]pyrimidin-7-yl)isonicotinonitrile]
4 | < 100 nM | 100 to 500 nM | – | – | CCCN(CC)c1cn(-c2cc(C#N)ccn2)c2ncnc(N3CCN(C(=O)C(C)C)C[C@@H]3C)c12 [Compound 163, (S)-2-(5-(ethyl(propyl)amino)-4-(4-isobutyryl-2-methylpiperazin-1-yl)-7H-pyrrolo[2,3-d]pyrimidin-7-yl)isonicotinonitrile]
5 | < 100 nM | < 100 nM | – | – | C[C@H]1CN(C(=O)C2CC2)CCN1c1ncnc2c1c(-c1ccccc1F)cn2-c1cc(C#N)ccn1 [Compound 105, (S)-2-(4-(4-(cyclopropanecarbonyl)-2-methylpiperazin-1-yl)-5-(2-fluorophenyl)-7H-pyrrolo[2,3-d]pyrimidin-7-yl)isonicotinonitrile]
6 | – | – | < 100 nM | < 100 nM | CC(C)C(=O)N1C[C@H](C)N(c2ncnc3c(-c4cc(C#N)ccn4)cn(-c4ccccc4F)c23)C[C@H]1C [Compound 213, 2-(5-(2-fluorophenyl)-4-((2S,5R)-4-isobutyryl-2,5-dimethylpiperazin-1-yl)-5H-pyrrolo [3,2-d]pyrimidin-7-yl)isonicotinonitrile]
7 | – | – | < 100 nM | – | CC(C)C(=O)N1C[C@H](C)N(c2ncnc3c2c(-c2ccccc2F)cn3-c2cc(C#N)ccn2)C[C@H]1C (single isomer, unassigned) [Compound 233]
8 | – | – | < 100 nM | – | CC(C)C(=O)N1C[C@H](C)N(c2ncnc3c2c(-c2ccccc2F)cn3-c2cc(C#N)ccn2)C[C@H]1C (single isomer, unassigned) [Compound 234]
9 | – | – | 100 to 500 nM | – | CC(C)C(=O)N1C[C@H](C)N(c2ncnc3c2c(-c2ccccc2F)cn3-c2cc(C#N)ccn2)C[C@H]1C (single isomer, unassigned) [Compound 281]
10 | < 100 nM | – | – | – | C[C@@H]1CN(c2ncnc3c2c(-c2ccccc2F)cn3-c2cc(C#N)ccn2)CCN1C(=O)C1CC1 [Compound 111, (R)-2-(4-(4-(cyclopropanecarbonyl)-3-methylpiperazin-1-yl)-5-(2-fluorophenyl)-7H-pyrrolo[2,3-d]pyrimidin-7-yl)isonicotinonitrile]

The next lines start with the compound.

Row | Compound | EC50 (human TRPML1; Table 3, compounds 101-177) | EC50 (TRPML3; Table 3, compounds 101-177) | EC50 (human TRPML1; Table 3, compounds 201-283) | EC50 (TRPML3; Table 3, compounds 201-283)
11 | Cc1nccnc1-c1cn(-c2cc(F)cc(F)c2)c2ncnc(N3C[C@@H](C)N(C(=O)CC(C)C)C[C@@H]3C)c12 [Compound 177, 1-((2R,5S)-4-(7-(3,5-difluorophenyl)-5-(3-methylpyrazin-2-yl)-7H-pyrrolo[2,3-d]pyrimidin-4-yl)-2,5-dimethylpiperazin-1-yl)-3-methylbutan-1-one] | 500 to 2000 nM | > 2000 nM | – | –
12 | CC(C)C(=O)N1C[C@H](C)N(c2ncnc3c2c(N2CCC2)cn3-c2cccc(Cl)c2)C[C@H]1C [Compound 221, 1-((2R,5S)-4-(5-(azetidin-1-yl)-7-(3-chlorophenyl)-7H-pyrrolo[2,3-d]pyrimidin-4-yl)-2,5-dimethylpiperazin-1-yl)-2-methylpropan-1-one] | – | – | < 100 nM | 500 to 2000 nM
13 | C[C@@H]1CN(c2ncnc3c2c(C2CCC2)cn3-c2cccc(F)c2)[C@@H](C)CN1C(=O)C1(F)CC1 [Compound 249, ((2R,5S)-4-(5-cyclobutyl-7-(3-fluorophenyl)-7H-pyrrolo[2,3-d]pyrimidin-4-yl)-2,5-dimethylpiperazin-1-yl)(1-fluorocyclopropyl)methanone] | – | – | 100 to 500 nM | 500 to 2000 nM
14 | C[C@@H]1CN(c2ncnc3c2c(C2CC2)cn3-c2cc(F)cc(F)c2)[C@@H](C)CN1C(=O)C(C)(C)C [Compound 205, 1-((2R,5S)-4-(5-cyclopropyl-7-(3,5-difluorophenyl)-7H-pyrrolo[2,3-d]pyrimidin-4-yl)-2,5-dimethylpiperazin-1-yl)-2,2-dimethylpropan-1-one] | – | – | < 100 nM | 100 to 500 nM
15 | C[C@H]1CN(C(=O)C(C)(C)C)CCN1c1nccc2c1c(C1CC1)cn2-c1cccc(F)c1 [Compound 228, (S)-1-(4-(3-cyclopropyl-1-(3-fluorophenyl)-1H-pyrrolo[3,2-c]pyridin-4-yl)-3-methylpiperazin-1-yl)-2,2-dimethylpropan-1-one] | – | – | < 100 nM | < 100 nM
16 | Cc1cn(-c2cc(C(F)(F)F)ccn2)c2ncnc(N3C[C@@H](C)N(C(=O)C(C)(C)C)C[C@@H]3C)c12 [Compound 245, 1-((2R,5S)-2,5-dimethyl-4-(5-methyl-7-(4-(trifluoromethyl)pyridin-2-yl)-7H-pyrrolo[2,3-d]pyrimidin-4-yl)piperazin-1-yl)-2,2-dimethylpropan-1-one] | – | – | < 100 nM | 100 to 500 nM
17 | CCCN(CC)c1cn(-c2cc(C#N)ccn2)c2ncnc(N3CCN(C(=O)C(C)(C)C)C[C@@H]3C)c12 [Compound 164] | < 100 nM | < 100 nM | – | –
18 | CC(C)C(=O)N1C[C@H](C)N(c2ncnc3c2c(N2CCC2)cn3-c2cc(C#N)ccn2)C[C@H]1C [Compound 275, 2-(5-(azetidin-1-yl)-4-((2S,5R)-4-isobutyryl-2,5-dimethylpiperazin-1-yl)-7H-pyrrolo[2,3-d]pyrimidin-7-yl)isonicotinonitrile] | – | – | < 100 nM | 100 to 500 nM
19 | C[C@@H]1CN(c2ncnc3c2c(N2CCC2)cn3-c2cccc(F)c2)[C@@H](C)CN1C(=O)C(C)(C)C [Compound 219, 1-((2R,5S)-4-(5-(azetidin-1-yl)-7-(3-fluorophenyl)-7H-pyrrolo[2,3-d]pyrimidin-4-yl)2,5-dimethylpiperazin-1-yl)-2,2-dimethylpropan-1-one] | – | – | < 100 nM | < 100 nM
20 | C[C@H]1CN(C(=O)C(C)(C)C)CCN1c1ncnc2c1c(N1CCC1)cn2-c1cccc(F)c1 [Compound 216, (S)-1-(4-(5-(azetidin-1-yl)-7-(3-fluorophenyl)-7H-pyrrolo[2,3-d]pyrimidin-4-yl)-3-methylpiperazin-1-yl)-2,2-dimethylpropan-1-one] | – | – | < 100 nM | > 2000 nM
21 | CC(C)C(=O)N1CCN(c2ncnc3c2c(N2CCCC2)cn3-c2cc(C#N)ccn2)C[C@H]1C [Compound 148, (R)-2-(4-(4-isobutyryl-3-methylpiperazin-1-yl)-5-(pyrrolidin-1-yl)-7H-pyrrolo[2,3-d]pyrimidin-7-yl)isonicotinonitrile] | 500 to 2000 nM | 100 to 500 nM | – | –
22 | CC(C)C(=O)N1C[C@H](C)N(c2ncnc3c2c(C2CCC2)cn3-c2cc(C#N)ccn2)C[C@H]1C [Compound 238, 2-(5-cyclobutyl-4-((2S,5R)-4-isobutyryl-2,5-dimethylpiperazin-1-yl)-7H-pyrrolo[2,3-d]pyrimidin-7-yl)isonicotinonitrile] | – | – | 100 to 500 nM | –

From US20240398812A1 (Caraway Therapeutics, Inc., priority 2021, published 2024)
